In PMC13286052 (Antimicrobial Agents and Chemotherapy, 2026):
“Also recorded” adds a separate entry of the source.

Assays:
VACV [1] = assay type: cell-based, vaccinia virus; conditions: 48 h
VACV [2] = conditions: cited from earlier work
poxvirus resolvases = conditions: cited from earlier work
MPXV resolvase (Mpr) = assay type: biochemical, monkeypox virus; conditions: 50 µM
vaccinia virus (VACV) = experiment: microbe, parasite or virus in culture; assay type: cell-based; conditions: for EC50: Orthopoxvirus vaccinia
VACV [3] = assay type: cell-based, vaccinia virus
[4] = male, CD-1, mouse, in vivo
VACV DNA replication = assay type: cell-based, vaccinia virus; conditions: 10 µM
in vivo = conditions: male, CD-1, mouse
in vitro = conditions: human
VACV E3 = assay type: cell-based, vaccinia virus; conditions: 10 µM
HCMV = conditions: cited from earlier work
VACV [5] = assay type: cell-based, vaccinia virus; conditions: 10 µM
[6] = microsomes; cited from earlier work
pUL89C = conditions: cited from earlier work
VACV gene expression = assay type: cell-based; conditions: 10 µM

Nc1ccn([C@@H]2O[C@H](CO)[C@@H](O)[C@@H]2O)c(=O)n1 [AraC, Cytarabine, reference compound]
late viral gene expression in rhesus colon enteroids (VACV [1]): markedly reduced

Cc1cc(C2CCCCC2)n(O)c(=O)c1 [Ciclopirox]
inhibition of VACV replication (VACV [2]): efficient inhibitors of VACV replication

O=c1c(-c2ccccc2)c(O)c2cc(-c3cccc(-c4ccccc4)c3)cnc2n1O [Compound 1, reference compound]
inhibition of poxvirus resolvases (poxvirus resolvases): potently inhibits
Mpr inhibition (MPXV resolvase (Mpr)): nearly complete inhibition

O=C(NNc1nc2cc(F)ccc2n2cccc12)c1cnccn1 [SC144]
inhibition of VACV replication (VACV [2]): efficient inhibitors of VACV replication

O=C(NN1C(=O)[C@@H]2[C@@H]3C=C[C@@H]([C@H]4C[C@@H]34)[C@@H]2C1=O)c1ccc(C(F)(F)F)cc1 [Tecovirimat, reference compound]
EC50 (vaccinia virus (VACV)): 25 nM

O=C(NCCc1ccc(F)cc1F)c1cn(Cc2ccc(F)cc2)cc(O)c1=O [ZW-2038]
viral replication (luciferase activity) in human jejunum enteroids (VACV [3]): significantly suppressed
reduction of Gaussia luciferase activity (vaccinia virus (VACV); 10 µM): more than 99%
EC50 (vaccinia virus (VACV)): 876 nM
Bioavailability (F, %) [4]: 4.1%
oral Cmax lower than IV Cmax [4]: 14 fold
CL ([4]; po, 20 mg/kg): 67 ± 50 mL/min/kg
V ([4]; po, 20 mg/kg): 117 ± 46 L/kg
viral DNA accumulation (VACV DNA replication): marked reduction
bioavailability (in vivo; Bioavailability (F, %)): 4%
AUC(0-t) (in vivo; iv, 2 mg/kg): 238 ± 54 ng·h/mL
Cmax (in vivo; iv, 2 mg/kg): 528 ng/mL
MRT last (in vivo; iv, 2 mg/kg): 0.9 ± 0.4 h
Tmax (in vivo; iv, 2 mg/kg): 0.08 h
clearance (in vivo; iv, 2 mg/kg): 150 mL/min/kg
half-life (in vivo; iv, 2 mg/kg): 5 ± 2 h
AUC(0-t) (in vivo; po, 20 mg/kg): 98 ± 15 ng·h/mL
Cmax (in vivo; po, 20 mg/kg): 38 ng/mL
MRT last (in vivo; po, 20 mg/kg): 11 ± 2 h
Tmax (in vivo; po, 20 mg/kg): 0.2 ± 0.2 h
half-life (in vivo; po, 20 mg/kg): 104 ± 159 h
Mpr inhibition (MPXV resolvase (Mpr)): no Mpr inhibition; also recorded: did not inhibit
cell viability compared to vehicle (HFFs): no significant difference
CC50 (in vitro): > 500000 nM
E3 levels (VACV E3): did not reduce
inhibition of HCMV (HCMV): potently inhibited
VACV titers in ex vivo mouse lung tissue (VACV [5]): consistently reduced
late viral gene expression in rhesus colon enteroids (VACV [1]): markedly reduced
microsomal stability [6]: good
inhibition of pUL89C (pUL89C): did not inhibit
luciferase activity from the early promoter (vEGluc) (VACV gene expression): did not affect
reporter activity from intermediate promoter (vIGluc) (VACV gene expression): significantly diminished
reporter activity from late promoter (vLGluc) (VACV gene expression): significantly diminished
